The target of assay [1] is T1, full-length MALT1 protein His-MALT1(1-824) (Homo sapiens (Human), UniProt Q9UDY8). Description: MALT1 protease assay, Assay 1 (2 nM MALT1, Ac-LRSR-AMC substrate). The assay is classed as biochemical. The conditions noted are these: 2 nM MALT1, 50 μM Ac-LRSR-AMC, 2 h pre-incubation, 8 hr incubation at RT. Here is the method: MALT1 protease activity was assessed in an in vitro assay using a tetrapeptide as substrate and full-length MALT1 protein His-MALT1(1-824) purified from baculovirus-infected insect cells.
The final assay buffer includes 1 nM (Assay 2) or 2 nM (Assay 1) of MALT1 full-length protein, 50 μM Ac-LRSR-AMC substrate, 50 mM Tris pH 7.5, 600 mM Sodium Citrate, 1 mM DTT, 1 mM EDTA, and 0.05% BSA in 384-well plate format using black microtiter square well plates (Optiplate 384-F, Perkin Elmer).
Test compounds were dissolved in 100% DMSO at stock of 10 mM, with final DMSO concentration 0.1%. Test compounds were pre-incubated with MALT1 protein for 2 h at room temperature. Substrate was added after the pre-incubation and fluorescence signal was measured using Envision at excitation 355 nm and emission 460 nm after 8 hr incubation at RT. Increase in the assay signal was linear over this period and proportional with increase in the enzyme content.
The fluorescence units were transformed to percentage of remaining activity by using the high control (HC, median of fluorescence signal from wells containing MALT1 protein, substrate, and DMSO) and low control (LC, median of fluorescence signal from wells with substrate only) with the formula below: […]
IC50 and Hill coefficient were obtained using Graph Pad Prism (Graph Pad software, Inc, USA) with non-linear regression analysis.

The subject of assay [2] is IL10 secretion, OCI-LY10 cells. Description: Human IL10 secretion assay, Assay 1 (HTRF). The conditions noted are these: 24 h incubation, read-out: IL-10 Secretion IC50 [nM] Assay 1. The assay is classed as cell-based. An outline of the steps: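 OCI-LY10 cells (3×10^5/well, IMEM with 20% FBS) were treated with 3-fold serial compound dilutions from a 10 mM stock, 0.1% DMSO final, for 24 h. Secreted IL10 in medium was quantified by HTRF, normalised to DMSO-treated and no-cell controls, and IC50 (nM) derived by 4-parameter fit.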
For orientation: In TR-FRET formats the signal depends on donor and acceptor labels being close together.

In assay [3] the target is T1, full-length MALT1 protein His-MALT1(1-824). Description: MALT1 protease assay, Assay 2 (1 nM MALT1, Ac-LRSR-AMC substrate). The assay is classed as biochemical. The conditions noted are these: 1 nM MALT1, 50 μM Ac-LRSR-AMC, 2 h pre-incubation, 8 hr incubation at RT. The procedure, abridged: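 His-MALT1(1-824) from baculovirus-infected insect cells at 1 nM, preincubated 2 h at RT with compound (0.1% DMSO), then 50 μM Ac-LRSR-AMC in 50 mM Tris pH 7.5, 600 mM sodium citrate, 1 mM DTT, 1 mM EDTA, 0.05% BSA. Fluorescence (ex 355/em 460 nm) after 8 h at RT, normalized to enzyme and substrate-only controls. IC50 and Hill coefficient by non-linear regression.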

The record followed here is patent US20240018157A1, “CYCLIC COMPOUNDS AND METHODS OF USING SAME” (Schrödinger, Inc., priority 2019, published 2024).

T1 sequence (Q9UDY8 whole entry): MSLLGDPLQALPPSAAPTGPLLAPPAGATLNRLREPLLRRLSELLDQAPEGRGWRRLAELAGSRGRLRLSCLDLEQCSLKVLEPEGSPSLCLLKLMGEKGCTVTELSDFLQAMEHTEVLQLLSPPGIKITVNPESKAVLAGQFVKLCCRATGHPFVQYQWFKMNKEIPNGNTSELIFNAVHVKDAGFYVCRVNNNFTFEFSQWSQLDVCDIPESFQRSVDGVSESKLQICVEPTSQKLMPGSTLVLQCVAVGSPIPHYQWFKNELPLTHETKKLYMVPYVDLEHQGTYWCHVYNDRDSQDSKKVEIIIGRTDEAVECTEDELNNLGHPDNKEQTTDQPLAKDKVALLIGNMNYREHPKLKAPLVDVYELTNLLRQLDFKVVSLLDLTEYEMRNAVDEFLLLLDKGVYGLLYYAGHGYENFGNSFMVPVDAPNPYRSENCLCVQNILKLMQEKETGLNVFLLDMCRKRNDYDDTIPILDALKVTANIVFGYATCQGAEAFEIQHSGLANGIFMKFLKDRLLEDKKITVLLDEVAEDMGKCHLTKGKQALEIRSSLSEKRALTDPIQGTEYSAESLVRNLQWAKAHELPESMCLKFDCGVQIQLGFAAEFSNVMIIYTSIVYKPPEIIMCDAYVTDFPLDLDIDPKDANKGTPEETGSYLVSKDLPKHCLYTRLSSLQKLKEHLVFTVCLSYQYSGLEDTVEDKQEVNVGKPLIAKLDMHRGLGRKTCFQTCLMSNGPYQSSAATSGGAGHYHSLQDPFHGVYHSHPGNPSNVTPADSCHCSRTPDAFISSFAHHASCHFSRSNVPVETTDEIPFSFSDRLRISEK

Usually IC50 stands for the midpoint of a concentration-inhibition curve. As to `CC1(C)CCN(C(=O)Nc2cnc(-n3nccn3)c(Cl)c2)c2ccc3cc(Cl)nn3c21` [compound 9, 2-chloro-N-(5-chloro-6-(2H-1,2,3-triazol-2-yl)pyridin-3-yl)-9,9-dimethyl-8,9-dihydropyrazolo[1,5-a][1,5]naphthyridine-6(7H)-carboxamide], the IC50 in assay [1] is 10 to 100 nM; in assay [2] it was no less than 1000 nM.
In assay [1], `C[C@@]1(C(F)(F)F)CN(C(=O)Nc2cc(Cl)c(=O)n(C(F)F)c2)c2cnc3cc(Cl)nn3c21` [compound 50, (R)-2-chloro-N-(5-chloro-1-(difluoromethyl)-6-oxo-1,6-dihydropyridin-3-yl)-8-methyl-8-(trifluoromethyl)-7,8-dihydro-6H-pyrazolo[1,5-a]pyrrolo[2,3-e]pyrimidine-6-carboxamide] yielded an IC50 of 10 to 100 nM.
Regarding `C[C@@]1(C(F)(F)F)CN(C(=O)Nc2cnc(CO)c(Cl)c2)c2cnc3cc(Cl)nn3c21` [compound 43, (R)-2-chloro-N-(5-chloro-6-(hydroxymethyl)pyridin-3-yl)-8-methyl-8-(trifluoromethyl)-7,8-dihydro-6H-pyrazolo[1,5-a]pyrrolo[2,3-e]pyrimidine-6-carboxamide], the IC50 in assay [1] lay within 10 to 100 nM; in assay [2] it was 100 to 1000 nM.
For the molecule `C[C@@]1(C(F)(F)F)CN(C(=O)Nc2cnc(N3CCCC3)c(Cl)c2)c2cnc3cc(Cl)nn3c21` [compound 23, (R)-2-chloro-N-(5-chloro-6-(pyrrolidin-1-yl)pyridin-3-yl)-8-methyl-8-(trifluoromethyl)-7,8-dihydro-6H-pyrazolo[1,5-a]pyrrolo[2,3-e]pyrimidine-6-carboxamide], the IC50 in assay [1] was 10 to 100 nM.
The molecule `C[C@@]1(C(F)(F)F)CN(C(=O)Nc2cnc(-n3cc(C#N)cn3)c(Cl)c2)c2cnc3cc(Cl)nn3c21` [compound 22, (R)-2-chloro-N-(5-chloro-6-(4-cyano-1H-pyrazol-1-yl)pyridin-3-yl)-8-methyl-8-(trifluoromethyl)-7,8-dihydro-6H-pyrazolo[1,5-a]pyrrolo[2,3-e]pyrimidine-6-carboxamide] gave an IC50 in assay [1] of 10 to 100 nM.
With `Cn1cc(-c2ncc(NC(=O)N3C[C@@](C)(C(F)(F)F)c4c3cnc3cc(Cl)nn43)cc2Cl)cn1` [compound 20, (R)-2-chloro-N-(5-chloro-6-(1-methyl-1H-pyrazol-4-yl)pyridin-3-yl)-8-methyl-8-(trifluoromethyl)-7,8-dihydro-6H-pyrazolo[1,5-a]pyrrolo[2,3-e]pyrimidine-6-carboxamide], the IC50 in assay [1] lay within 10 to 100 nM; in assay [2], 100 to 1000 nM.
Regarding `COc1nc(-n2nccn2)c(Cl)cc1NC(=O)N1C[C@@](C)(C(F)(F)F)c2c1cnc1cc(Cl)nn21` [compound 52, (R)-2-chloro-N-(5-chloro-2-methoxy-6-(2H-1,2,3-triazol-2-yl)pyridin-3-yl)-8-methyl-8-(trifluoromethyl)-7,8-dihydro-6H-pyrazolo[1,5-a]pyrrolo[2,3-e]pyrimidine-6-carboxamide], the IC50 was less than 10 nM in assay [1] and 10 to 100 nM in assay [2].
In assay [1], `Cn1cnc(-c2ncc(NC(=O)N3C[C@@](C)(C(F)(F)F)c4c3cnc3cc(Cl)nn43)cc2Cl)c1` [compound 28, (R)-2-chloro-N-(5-chloro-6-(1-methyl-1H-imidazol-4-yl)pyridin-3-yl)-8-methyl-8-(trifluoromethyl)-7,8-dihydro-6H-pyrazolo[1,5-a]pyrrolo[2,3-e]pyrimidine-6-carboxamide] returned a half-maximal inhibitory concentration (IC50) of 10 to 100 nM.
`Cc1cc(NC(=O)N2C[C@@](C)(C(F)(F)F)c3c2cnc2cc(Cl)nn32)cnc1-n1ccnn1` [compound 30, (R)-2-chloro-8-methyl-N-(5-methyl-6-(1H-1,2,3-triazol-1-yl)pyridin-3-yl)-8-(trifluoromethyl)-7,8-dihydro-6H-pyrazolo[1,5-a]pyrrolo[2,3-e]pyrimidine-6-carboxamide]: the IC50 in assay [1] lay in the range of 10 to 100 nM.
Take `C[C@@]1(C(F)(F)F)CN(C(=O)Nc2cnc(C#N)c(Cl)c2)c2cnc3cc(Cl)nn3c21` [compound 42, (R)-2-chloro-N-(5-chloro-6-cyanopyridin-3-yl)-8-methyl-8-(trifluoromethyl)-7,8-dihydro-6H-pyrazolo[1,5-a]pyrrolo[2,3-e]pyrimidine-6-carboxamide]: the figures for the IC50 in assay [1], in assay [3] and in assay [2] were 10 to 100 nM, 10 to 100 nM and 100 to 1000 nM, respectively.
On to `CC1(C(F)(F)F)CN(C(=O)Nc2cnc(-n3nccn3)c(Cl)c2)c2cnc3cc(C#N)nn3c21` (stereo not drawn) [compound 17, N-[5-chloro-6-(triazol-2-yl)-3-pyridyl]-11-cyano-3-methyl-3-(trifluoromethyl)-1,5,8,12-tetrazatricyclo[7.3.0.02,6]dodeca-2(6),7,9,11-tetraene-5-carboxamide], for which the IC50 in assay [1] was 10 to 100 nM.
As for `C[C@@]1(C(F)(F)F)CN(C(=O)NC2CCC(F)(F)CC2)c2cnc3cc(Cl)nn3c21` [compound 37, (R)-2-chloro-N-(4,4-difluorocyclohexyl)-8-methyl-8-(trifluoromethyl)-7,8-dihydro-6H-pyrazolo[1,5-a]pyrrolo[2,3-e]pyrimidine-6-carboxamide], the IC50 in assay [1] and in assay [3] was 100 to 1000 nM each time.
Take `Cc1cc2ncc3c(n2n1)C(C)(C)CCN3C(=O)Nc1cnc(-n2nccn2)c(Cl)c1` [compound 8, N-(5-chloro-6-(2H-1,2,3-triazol-2-yl)pyridin-3-yl)-2,9,9-trimethyl-8,9-dihydropyrazolo[1,5-a]pyrido[2,3-e]pyrimidine-6(7H)-carboxamide]: the figures for the half-maximal inhibitory concentration (IC50) in assay [1] and in assay [2] were 10 to 100 nM and 100 to 1000 nM, respectively.
